Reference: patent publication US20190314197A1, “Topical Ocular Delivery Methods and Devices for Use in the Same” (Kedalion Therapeutics, Inc., priority 2018, published 2019)

Experiments:
Type in all cases: in vivo, human
[1] = Trial 2: intraocular pressure reduction (Goldmann applanation tonometry) in primary open angle glaucoma patients; settings: for average IOP decrease measured per patient: approximately 8 hours after dosing
Procedure: Trial 2 compared the efficacy (dose volume equivalence) of 0.005% w/v latanoprost for intraocular pressure reduction when delivered via AcuStream™ (pre-trial calibration volume=9.2 μl) versus the standard eye dropper for topical drug delivery (approximate volume=30 μl).
Patients included in Trial 2 have previously been diagnosed with primary open angle glaucoma on the basis of intraocular pressure and visual field testing, fundus examination or optical coherence tomography (OCT) data and are currently on prostaglandin analog medical therapy. Patients with corneal abnormalities that would interfere with accurate IOP measurements with applanation tonometry, use of an oral or topical ophthalmic steroids within the past 14 days from screening date, any active ocular surface or anterior segment disease, or progressive field loss during the past year were excluded from the study. Thirteen men and five women participated in the trial.
Recruited patients were taken off medical therapy for a period of 3-4 weeks prior to the study to allow drug “wash out”, thereby elevating their IOPs to pre-treatment levels which was confirmed by examination of the patients' chart history. Patients were randomly assigned as “test” (AcuStream™), or “control” (standard eye dropper). The mean age of the control group and test group were 61.0 years and 65.2 years, respectively.
The patients assigned to either the “test” or “control” group by means of a random numbers table in order to mitigate any potential cross-over effects that could confound data interpretation. An odd number dictated that the patient was in the test group, while even-numbered patients were in the control group.
After performing slit lamp examinations on each patient to verify eligibility and obtaining informed consent, intraocular pressure (IOP) was measured by a sole experienced examiner who was blind to the randomized conditions. A pre-calibrated Goldmann applanation tonometer coupled to a Haag-Streit 900 EQ slit lamp was used to conduct baseline IOP measurements. Once baseline IOP data were verified to be equivalent to pre-medical therapy levels (based on patient's treatment history), the patient then continued to the dosing stage of the study.
Latanoprost solution was administered by a sole ophthalmologist to both eyes of each patient, based on the pre-determined randomized condition.

[2] = Pupil diameter after self-administered pilocarpine micro-dose (presbyopia); settings: non-dosed fellow eye
Procedure: (§1) A 10 μl micro-dose of a 1% pilocarpine solution was self-administered using an electromagnetic actuated fluid delivery device, e.g., as described above, by three subjects to their own eye. The age range of the subjects was 52 years to 68 years, and all subjects were male. The pilocarpine micro-dose was self-administered by the subjects.
(§2) Baseline, pre-dose values of pupil diameter and near visual acuity in both eyes prior to dosing was measured for all subjects, and then following the baseline measurements, the subjects were dosed in only one eye (the eye with the poorer visual acuity) with the micro-dose pilocarpine solution. Approximately 45 to 60 minutes after dosing, pupil diameter and near visual acuity were again tested. Near visual acuity was measured using a Snellen card at a distance of 40 cm. A tabulation of results is given below in Table A.

[3] = Near visual acuity (Snellen card at 40 cm) after pilocarpine micro-dose (presbyopia); settings: dosed eye
Procedure: as §1, §2

Row | SMILES | average IOP decrease measured per patient ([1]; AcuStream (test group)) [mm Hg] | difference in IOP reduction between AcuStream and standard dropper groups ([1]; Wilcoxon Ranked Sum test, p=0.3447) | post-instillation IOP, single patient outlier ([1]; control group (standard dropper), OD, baseline IOP 30 mm Hg) [mm Hg] | equivalence of 9.2 μl AcuStream dose volume to 30 μl standard eye drops, intraocular pressure reduction ([1]; human, in vivo) | average IOP decrease measured per patient ([1]; standard eye dropper (control group)) [mm Hg] | miotic effect in non-dosed eye [2] | mean improvement in near visual acuity ([3]; all subjects) [lines] | # of lines change in visual acuity ([3]; mean of 3 subjects) [lines]
1 | CC(C)OC(=O)CCC/C=C\C[C@@H]1[C@@H](CC[C@@H](O)CCc2ccccc2)[C@H](O)C[C@@H]1O [latanoprost] | 5.0 | no statistically significant differences | 17 | pharmacodynamic equivalence | 4.3 | – | – | –
2 | CC[C@@H]1C(=O)OC[C@@H]1Cc1cncn1C [pilocarpine] | – | – | – | – | – | no miotic effect | 2 | 2
